Format in all cases: in vivo
In one assay the test system is Digitaria sanguinalis. The experiment in a line: Greenhouse post-emergence (POST) herbicidal test on DIGSA. The settings on record: for inhibition at 2 g/ha / inhibition at 8 g/ha: Digitaria sanguinalis, post-emergence; for inhibition at 2 g/ha: use rate 2 gai/ha. In outline:
(§1)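 Weeds grown in loamy sand (~3.0% humus) to 3–15 cm were sprayed post-emergence with compounds suspended or emulsified in water, formulated as 5% emulsion concentrates. Plants were kept at 10-25 °C or 20-35 °C by species. Damage was scored 0–100 (100 = complete destruction) at 20 DAT.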

The next assay deals with Alopecurus myosuroides. The experiment in a line: Greenhouse pre-emergence (PRE) herbicidal test on ALOMY. The conditions noted are these: Alopecurus myosuroides, pre-emergence, 480 h, PRE, ALOMY, 20 DAT. In outline: (§2)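 Scoring ran from 0 (normal growth) to 100 (no emergence or above-ground parts fully destroyed) and was done 20 DAT. Application was pre-emergent in pots of loamy sand (~3.0% humus) sown per species. Plants grew at 10-25° C or 20-35° C by species.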

In the next assay the test system is Abutilon theophrasti. The assay can be described thus: Greenhouse pre-emergence (PRE) herbicidal test on ABUTH. The conditions noted are these: Abutilon theophrasti, pre-emergence; for inhibition at 8 g/ha: use rate 8 gai/ha. Put shortly:
as §2

The subject of a further assay is Geranium pusillum. The experiment in a line: Greenhouse post-emergence (POST) herbicidal test on GERPU. The settings on record: Geranium pusillum, post-emergence, 480 h, POST, GERPU, 20 DAT. Put shortly:
as §1

In a further assay the test system is Ipomoea hederacea. The assay can be described thus: Greenhouse post-emergence (POST) herbicidal test on IPOHE. The conditions noted are these: Ipomoea hederacea, post-emergence. Put shortly: as §1
The next assay has as its system Amaranthus retroflexus. The experiment in a line: Greenhouse pre-emergence (PRE) herbicidal test on AMARE. The conditions noted are these: Amaranthus retroflexus, pre-emergence; AMARE PRE, use rate 2 gai/ha; read-out: % activity. Put shortly:
as §2

[1] abbreviates: use rate 2 gai/ha, read-out: solo application % activity.
[2] abbreviates: use rate 8 gai/ha, read-out: solo application % activity.

Like-named read-outs stand apart in the source and are kept apart here.

Regarding `COc1c(Cl)c(F)c(F)c(F)c1Nc1nc(N)nc(C(C)(C)F)n1` [Compound I-4, N4-(5-Chloro-2,3,4-trifluoro-6-methoxy-phenyl)-6-(1-fluoro-1-methyl-ethyl)-1,3,5-triazine-2,4-diamine], in the assay with Digitaria sanguinalis (DIGSA POST, use rate 8 gai/ha), the “% activity” value was found to be 35%. In addition, the inhibition at 2 g/ha is 0% with Digitaria sanguinalis (480 h, POST, DIGSA, 20 DAT, read-out: solo application % activity); 10% in the assay with Digitaria sanguinalis (DIGSA POST, read-out: % activity); 5% with Alopecurus myosuroides (setting [1]); 10% in the assay on Abutilon theophrasti (ABUTH PRE, use rate 2 gai/ha, read-out: % activity); 5% in the assay with Geranium pusillum (setting [1]); 40% in the assay with Ipomoea hederacea (IPOHE POST, use rate 2 gai/ha, read-out: % activity). The inhibition at 2 g/ha in the assay on Amaranthus retroflexus turned out to be 70%. Further, the inhibition at 8 g/ha was found to be 0% in the assay with Digitaria sanguinalis (480 h, POST, DIGSA, use rate 8 gai/ha, 20 DAT, read-out: solo application % activity); 25% in the assay on Digitaria sanguinalis (DIGSA POST, use rate 8 gai/ha, read-out: % activity); 25% in the assay on Alopecurus myosuroides (setting [2]); 50% in the assay with Abutilon theophrasti (240 h, PRE, 10 DAT, read-out: % activity); 90% in the assay with Abutilon theophrasti (480 h, PRE, ABUTH, 20 DAT, read-out: solo application % activity); 80% with Abutilon theophrasti (ABUTH PRE, read-out: % activity). In addition, the inhibition at 8 g/ha with Geranium pusillum (setting [2]) came out at 25%; in the assay with Ipomoea hederacea (480 h, POST, IPOHE, use rate 8 gai/ha, 20 DAT, read-out: solo application % activity) it was 80%. Also, the pest or weed control at 2 g/ha was determined as 50% in the assay with Alopecurus myosuroides (I-4 solo 2 gai/ha, read-out: % activity); 35% in the assay with Abutilon theophrasti (480 h, PRE, ABUTH, I-4 solo 2 gai/ha, 20 DAT); 10% in the assay with Geranium pusillum (I-4 solo 2 gai/ha). Also, in the assay with Abutilon theophrasti (240 h, PRE, use rate 16 gai/ha, 10 DAT), the inhibition at 16 g/ha stood at 70%. For the same molecule, the pest or weed control at 8 g/ha in the assay on Geranium pusillum (I-4 solo 8 gai/ha) turned out to be 30%.

The values are drawn from US20260007133A1, “HERBICIDAL COMPOSITION COMPRISING AZINE COMPOUNDS” (BASF SE, priority 2022, published 2026).
